Experimental data as given in patent publication US20050003388A1, “Calcium independent phospholipase A2upsilon polynucleotides and polypeptides and methods therefor” (priority 2000, published 2005).

Key:
[1] = system: myocardial cytosolic and membrane-associated iPLA2; conditions: irreversible mechanism-based inhibitor; Hazen et al. 1991, Zupan et al., Gross et al. 1993; cited from earlier work
[2] = molecular target: T1, human iPLA2γ (Homo sapiens, UniProt Q9NP80); assay: Inhibition by BEL of phospholipase A2 activity of iPLA2γ in membrane fractions of infected Sf9 cells; type: biochemical
T1 sequence (Q9NP80 1-782): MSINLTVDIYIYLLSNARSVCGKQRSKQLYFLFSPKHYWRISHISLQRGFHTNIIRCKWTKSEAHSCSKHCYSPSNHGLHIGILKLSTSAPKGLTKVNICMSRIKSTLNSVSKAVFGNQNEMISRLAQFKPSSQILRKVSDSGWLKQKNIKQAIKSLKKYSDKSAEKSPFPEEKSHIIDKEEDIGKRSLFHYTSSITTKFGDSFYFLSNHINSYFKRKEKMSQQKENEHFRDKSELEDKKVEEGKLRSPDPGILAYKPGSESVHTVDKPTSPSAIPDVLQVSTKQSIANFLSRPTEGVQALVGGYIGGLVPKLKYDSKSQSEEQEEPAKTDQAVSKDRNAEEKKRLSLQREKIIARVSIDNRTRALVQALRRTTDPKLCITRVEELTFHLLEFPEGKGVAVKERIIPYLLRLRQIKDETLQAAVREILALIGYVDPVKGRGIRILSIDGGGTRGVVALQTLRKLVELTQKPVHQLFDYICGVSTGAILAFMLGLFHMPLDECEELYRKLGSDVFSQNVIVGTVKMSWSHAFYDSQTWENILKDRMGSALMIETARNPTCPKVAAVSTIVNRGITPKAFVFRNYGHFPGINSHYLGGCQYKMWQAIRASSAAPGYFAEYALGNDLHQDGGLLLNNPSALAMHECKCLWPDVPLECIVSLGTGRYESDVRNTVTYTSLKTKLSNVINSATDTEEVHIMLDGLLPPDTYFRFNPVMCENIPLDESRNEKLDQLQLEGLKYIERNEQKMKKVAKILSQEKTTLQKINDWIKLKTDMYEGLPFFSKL
Experimental: Briefly, Sf9 cells were infected with either wild-type baculovirus or baculovirus encoding human iPLA2γ, as described in Example 5. Cytosolic and membrane fractions of the infected Sf9 cells were prepared as described above. Phospholipase A2 activity was assessed as follows. Membrane fractions from control cells or cells expressing iPLA2γ were incubated with 40 μM L-α-1-palmitoyl-2-[1-^14C]oleoyl phosphatidylcholine in 100 mM Tris-Hac, pH 8.0, containing 1 mM EGTA at 37° C. Aliquots of the reaction were removed at the indicated times, and the amount of [1-^14C]oleic acid released was quantified as described above. Specifically, the release of sn-2-fatty acid from glycero-3-phosphocholine was determined as a function of time.
Briefly, Sf9 cells were infected with either wild-type baculovirus or baculovirus encoding human iPLA2γ, as described in Example 5. Membrane fractions of the infected Sf9 cells were prepared as described above, and then incubated for three minutes at room temperature in 100 mM Tris-HAc, pH 8.0, containing lmM EGTA, with varying concentrations of BEL, or ethanol vehicle, as indicated along the x-axis. L-α-1-palmitoyl-2-[1-^14C]oleoyl phosphatidylcholine (40 μM final concentration) in ethanol was then added to each reaction, followed by incubation at 37° C. for two minutes. Released [1-^14C]oleic acid was quantitated as described above. […]

[3] = molecular target: T2, calcium-facilitated phospholipase A2γ (Homo sapiens, UniProt Q9UP65); conditions: at <50 μM [BEL]; Jenkins et al. 2002; cited from earlier work
T2 sequence (Q9UP65 1-541): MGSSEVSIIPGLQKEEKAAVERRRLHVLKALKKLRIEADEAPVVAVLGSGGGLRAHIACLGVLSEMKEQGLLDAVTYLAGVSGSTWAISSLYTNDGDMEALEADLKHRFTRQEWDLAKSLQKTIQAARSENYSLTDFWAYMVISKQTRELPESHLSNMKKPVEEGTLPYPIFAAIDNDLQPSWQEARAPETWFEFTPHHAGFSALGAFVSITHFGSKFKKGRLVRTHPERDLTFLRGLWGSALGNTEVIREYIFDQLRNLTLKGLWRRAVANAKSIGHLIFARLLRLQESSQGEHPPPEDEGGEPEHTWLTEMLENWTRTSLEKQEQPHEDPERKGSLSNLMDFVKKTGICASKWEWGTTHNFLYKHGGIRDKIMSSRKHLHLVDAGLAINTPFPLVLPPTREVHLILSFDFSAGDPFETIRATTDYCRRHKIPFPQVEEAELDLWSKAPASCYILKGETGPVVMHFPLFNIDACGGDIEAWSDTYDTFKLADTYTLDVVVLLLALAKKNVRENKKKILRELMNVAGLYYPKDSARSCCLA

In the case of `O=C1OC(=CBr)CCC1c1cccc2ccccc12` (stereo not shown) [BEL, (E)-6-(bromomethylene)-3-(1-napthalenyl)-2H-tetrahydropyran-2-one], the “concentrations giving nearly complete inhibition of myocardial cytosolic membrane-associated iPLA2” value [1] is given as 2 to 5 µM, the IC50 [2] is given as ~3 µM and the inhibition at 5 µM ([2]; 5 μM BEL, preincubation of membranes for three minutes prior to addition of substrate (40 μM POPC), 37° C. two minutes) is given as ~70%. For the same compound, the “inhibition of calcium-facilitated phospholipase A2γ by BEL” value [3] was “not inhibited”.
